# Patent US11519025B2, “Cation chelator hot start” (priority 2014, dated 2022)
# Several values for one entry are separate records, joined by “and”; a condition that tells them apart may be missing. Identical values can stand only once. Entries after “also recorded” stand apart in the source; their conditions may differ. Counter-ions that a name gives are not always drawn. Like-named read-outs stand apart in the source and are kept apart here.
# Assays:
# [1] = vendor product list; cited from earlier work
# [2] = biological target: DNase, a nuclease isolated from bovine pancreas (Bos taurus, UniProt P00639); settings: for DNase enzymatic activity: 100 μM EDTA
# [3] = pH-dependency of the binding constants of chelating agents; format: physicochemical; settings: worked out from known pK values from literature (FIG. 1)
# Method: Tris buffer is routinely used in PCR buffers. At room temperature the pH of a Tris based PCR buffer is 8.7. […] This means that at 95° C. the pH value is 6.6. In order to select a chelating agent for PCR experiments, the pH-dependency of the binding constants of three different chelating agents, NTA; EDTA and EGTA, was investigated. Known pK values from literature for every chelating agent were used to determine the pH dependency of the complex formation (FIG. 1).
# [4] = biological target: T1, chemically inactivated Taq DNA polymerase (Thermus aquaticus, UniProt P19821); experiment: Amplification of bisulphite-treated DNA in the presence of EGTA and different magnesium concentrations; format: biochemical; settings: for Ct / Ct Average: 5 mM EGTA
# Method: In the follow-up experiment said primers and said bisulphite-treated DNA were used in amplification reactions wherein the magnesium dependency was analyzed.
# The final concentration of EGTA was 5 mM. The HRM master mix was supplemented with 0.1 0.6 mM magnesium.
# Two sets of reactions consisting of duplicates were used in the amplification experiment. One set of samples was incubated on ice for 120 min, whereas the other set of samples was incubated at room temperature for 120 min. Subsequently the samples were analyzed using the Rotor-Gene Q 5plex HRM System.
# [5] = biological target: T1, chemically inactivated Taq DNA polymerase; experiment: Amplification of bisulphite-treated DNA in the presence of different EGTA concentrations (residual activity of chemically inactivated Taq, Ct and HRM melting curves); format: biochemical
# From the text: The following experiments employed a system to detect the formation of primer dimers in a PCR reaction mixture using residual active Taq polymerase molecules. Herein, bisulphite-treated DNA is used as a template. As a consequence of the bisulphite treatment, which entails the chemical modification of non-methylated cytosines to uracil), said template only consists of three bases. Since bisulphite treatment only works when using single stranded DNA, the majority of DNA after completion of said bisulphite treatment is single stranded. Primers that are used for amplification of such DNA sequences are characterized by reduced complexity since they only consist of three bases.
# Genomic DNA was propagated using the Qiagen REPLI g Midi Kit according to the manufacturer's protocol. Subsequently, 1 μg of said genomic DNA was used in 10 independent reactions wherein the DNA was subjected to bisulphite treatment using the EpiTect Bisulfite Kit followed by purification. The resulting DNA of each reaction was pooled and used in the subsequent amplification reactions.
# The final EGTA concentration was between 0.25 and 10 mM.
# One set of samples consisting of two reactions was incubated on ice for 120 min, whereas the other set of samples also consisting of two reactions was incubated at room temperature for 120 min. Subsequently both sets of samples were analyzed using the Rotor-Gene Q 5plex HRM System.
# Taq = Taq (Thermus aquaticus, UniProt P19821); experiment: Endpoint PCR (HugI, 1.2 kb genomic target) with and without EGTA, agarose gel; format: biochemical; settings: 5 mM EGTA, 5-10 mM Mg, compared to reactions without EGTA
# Method: An amplification experiment was performed using a test system that is known to be prone to produce non-specific side products. A genomic DNA sequence of 1.2 kb was the target sequence. Primers HugA and HugB were used.
# Reactions with and without EGTA were performed in parallel. In set A, the magnesium concentration was varied in 1 mM steps, start and end point were 5 and 10 mM respectively. In set B, the start point was 0.5 mM and the end point was 4 mM Mg. The setup is described in Table 2.
# The amplification program was as follows (Table 3):
# 35 cycles were performed.
# [6] = for pH of Tris based PCR buffer: room temperature
# [7] = 0 mM MgCl2 added, on ice 120 min
# [8] = 0 mM MgCl2 added, room temperature 120 min
# [9] = 0.1 mM MgCl2, room temperature 120 min
# [10] = 0.2 mM MgCl2, room temperature 120 min
# [11] = 0.3 mM MgCl2, room temperature 120 min
# [12] = 0.4 mM MgCl2, room temperature 120 min
# [13] = 0.5 mM MgCl2, room temperature 120 min
# [14] = 0.6 mM MgCl2, room temperature 120 min
# [15] = 0.25 mM EGTA, room temperature 120 min
# [16] = 0.5 mM EGTA, room temperature 120 min
# [17] = 0.75 mM EGTA, room temperature 120 min
# [18] = 1 mM EGTA, room temperature 120 min
# [19] = 1.5 mM EGTA, room temperature 120 min
# [20] = 2 mM EGTA, room temperature 120 min
# [21] = 4 mM EGTA, room temperature 120 min
# [22] = 10 mM EGTA, room temperature 120 min
# DNase, a nuclease isolated from bovine pancreas, sequence (P00639 23-282): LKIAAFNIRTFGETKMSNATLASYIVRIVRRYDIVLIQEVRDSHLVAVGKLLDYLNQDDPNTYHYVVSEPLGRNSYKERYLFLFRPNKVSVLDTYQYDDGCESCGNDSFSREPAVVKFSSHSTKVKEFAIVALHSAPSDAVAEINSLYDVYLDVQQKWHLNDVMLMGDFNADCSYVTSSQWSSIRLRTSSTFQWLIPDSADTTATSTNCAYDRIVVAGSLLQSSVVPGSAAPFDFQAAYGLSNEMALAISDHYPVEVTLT
# T1 sequence (P19821 whole entry): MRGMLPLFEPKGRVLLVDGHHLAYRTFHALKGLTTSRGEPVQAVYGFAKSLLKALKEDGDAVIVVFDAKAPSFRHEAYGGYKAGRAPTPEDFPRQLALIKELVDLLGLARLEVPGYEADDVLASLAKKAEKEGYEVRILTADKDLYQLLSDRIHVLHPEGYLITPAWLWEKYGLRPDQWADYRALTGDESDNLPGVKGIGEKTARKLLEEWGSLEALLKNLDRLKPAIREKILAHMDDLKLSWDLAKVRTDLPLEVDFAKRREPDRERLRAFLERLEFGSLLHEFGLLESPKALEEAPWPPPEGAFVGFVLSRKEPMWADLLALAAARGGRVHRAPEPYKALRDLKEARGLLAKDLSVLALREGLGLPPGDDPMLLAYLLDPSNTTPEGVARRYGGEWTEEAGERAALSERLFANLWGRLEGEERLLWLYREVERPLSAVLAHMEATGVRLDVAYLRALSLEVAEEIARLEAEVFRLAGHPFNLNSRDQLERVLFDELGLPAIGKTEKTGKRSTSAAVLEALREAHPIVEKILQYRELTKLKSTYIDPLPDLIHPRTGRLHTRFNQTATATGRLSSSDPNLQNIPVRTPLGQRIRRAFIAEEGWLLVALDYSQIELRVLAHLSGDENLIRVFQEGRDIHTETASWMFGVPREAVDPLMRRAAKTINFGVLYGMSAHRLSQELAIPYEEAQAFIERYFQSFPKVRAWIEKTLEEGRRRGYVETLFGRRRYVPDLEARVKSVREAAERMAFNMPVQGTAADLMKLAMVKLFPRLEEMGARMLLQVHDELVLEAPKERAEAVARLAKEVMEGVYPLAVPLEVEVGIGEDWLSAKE
# Taq, sequence (P19821 whole entry): as above
compound,measurement,setting,value
"NC(=O)CNCCS(=O)(=O)O [Buffer 1, ACES]",pKa,[1],6.80
"O=S(=O)(O)CCN(CCO)CCO [Buffer 2, BES]",pKa,[1],7.10
"OCC(CO)(CO)NCCCNC(CO)(CO)CO [Buffer 4, BIS-TRIS propane]",pKa,[1],6.80
"O=S(=O)(O)CCCN1CCN(CCO)CC1 [Buffer 5, EPPS]",pKa,[1],8.00
"O=S(=O)(O)CCN1CCN(CCO)CC1 [Buffer 7, HEPES]",pKa,[1],7.50
"O=S(=O)(O)CCN1CCN(CCO)CC1 [Buffer 8, HEPES sodium salt]",pKa,[1],7.50
"O=S(=O)(O)CCN1CCN(CCS(=O)(=O)O)CC1 [Buffer 17, PIPES]",pKa,[1],6.80
"O=S(=O)(O)CCCNC(CO)(CO)CO [Buffer 22, TAPS]",pKa,[1],8.40
"O=S(=O)([O-])CCCNC(CO)(CO)CO.[Na+] [Buffer 23, TAPS sodium salt]",pKa,[1],8.40
"O=S(=O)(O)CCNC(CO)(CO)CO [Buffer 24, TES]",pKa,[1],7.50
"O=C(O)CN(CCN(CC(=O)O)CC(=O)O)CC(=O)O [EDTA, ethylene di amine tetra acetic acid]",DNase enzymatic activity,[2]; 42° C.,restoring enzymatic activity
same,DNase enzymatic activity,"[2]; on ice, 1, 0.5, 0.1 U DNase",largely reduced enzymatic activity
"O=C(O)CN(CCOCCOCCN(CC(=O)O)CC(=O)O)CC(=O)O [EGTA, ethylene glycol bis(amino ethyl) N, N′-tetra acetic acid]",correlation between pH value and binding constant,[3],strong correlation between pH value and binding constant
same,Ct,[4]; [7],28.74 and 28.89
same,Ct Average,[4]; [7],28.82
same,Ct,[4]; [8],28.86 and 28.67
same,Ct Average,[4]; [8],28.77
same,Ct,"[4]; 0.1 mM MgCl2, on ice 120 min",27.82 and 27.79
same,Ct Average,"[4]; 0.1 mM MgCl2, on ice 120 min",27.81
same,Ct,[4]; [9],27.53 and 27.71
same,Ct Average,[4]; [9],27.62
same,Ct,"[4]; 0.2 mM MgCl2, on ice 120 min",26.85 and 27.39
same,Ct Average,"[4]; 0.2 mM MgCl2, on ice 120 min",27.12
same,Ct,[4]; [10],26.69 and 27.27
same,Ct Average,[4]; [10],26.98
same,Ct,"[4]; 0.3 mM MgCl2, on ice 120 min",26.25 and 26.51
same,Ct Average,"[4]; 0.3 mM MgCl2, on ice 120 min",26.38
same,Ct,[4]; [11],26.14 and 26.64
same,Ct Average,[4]; [11],26.39
same,Ct,"[4]; 0.4 mM MgCl2, on ice 120 min",26.01 and 26.14
same,Ct Average,"[4]; 0.4 mM MgCl2, on ice 120 min",26.08
same,Ct,[4]; [12],26.06 and 26.24
same,Ct Average,[4]; [12],26.15
same,Ct,"[4]; 0.5 mM MgCl2, on ice 120 min",25.81 and 25.89
same,Ct Average,"[4]; 0.5 mM MgCl2, on ice 120 min",25.85
same,Ct,[4]; [13],25.82 and 25.86
same,Ct Average,[4]; [13],25.84
same,Ct,"[4]; 0.6 mM MgCl2, on ice 120 min",25.61 and 25.56
same,Ct Average,"[4]; 0.6 mM MgCl2, on ice 120 min",25.59
same,Ct,[4]; [14],25.55 and 25.49
same,Ct Average,[4]; [14],25.52
same,specificity of amplification,[4]; EGTA up to a final concentration of 5 mM,increased specificity
same,Ct,"[5]; 0.25 mM EGTA, on ice 120 min",25.34 and 25.51
same,Ct Average,"[5]; 0.25 mM EGTA, on ice 120 min",25.43
same,Ct,[5]; [15],25.2 and 25.42
same,Ct Average,[5]; [15],25.31
same,Ct,"[5]; 0.5 mM EGTA, on ice 120 min",25.53 and 25.62
same,Ct Average,"[5]; 0.5 mM EGTA, on ice 120 min",25.58
same,Ct,[5]; [16],25.55 and 25.47
same,Ct Average,[5]; [16],25.51
same,Ct,"[5]; 0.75 mM EGTA, on ice 120 min",25.78 and 25.88
same,Ct Average,"[5]; 0.75 mM EGTA, on ice 120 min",25.83
same,Ct,[5]; [17],25.91 and 25.8
same,Ct Average,[5]; [17],25.86
same,Ct,"[5]; 1 mM EGTA, on ice 120 min",26.59 and 26.61
same,Ct Average,"[5]; 1 mM EGTA, on ice 120 min",26.55
same,Ct,[5]; [18],26.47 and 26.5
same,Ct Average,[5]; [18],26.49
same,Ct,"[5]; 1.5 mM EGTA, on ice 120 min",28.17 and 28.21
same,Ct Average,"[5]; 1.5 mM EGTA, on ice 120 min",28.19
same,Ct,[5]; [19],27.76 and 27.88
same,Ct Average,[5]; [19],27.82
same,Ct,"[5]; 2 mM EGTA, on ice 120 min",30.16 and 28.53
same,Ct Average,"[5]; 2 mM EGTA, on ice 120 min",29.35
same,Ct,[5]; [20],29.9 and 29.71
same,Ct Average,[5]; [20],29.81
same,Ct,"[5]; 4 mM EGTA, on ice 120 min",38.37 and 38.14
same,Ct Average,"[5]; 4 mM EGTA, on ice 120 min",38.26
same,Ct,[5]; [21],37.32 and 37.02
same,Ct Average,[5]; [21],37.13
same,Ct,[5]; [22],35.18 and 34
same,Ct Average,[5]; [22],34.59
same,success of amplification,[5]; EGTA concentrations exceeded 2 mM,successful amplification was prevented
same,specificity of amplification and effect on Ct,[5]; EGTA up to a final concentration of 0.75 mM,increase of specificity without affecting the Ct values
same,specificity of PCR (side products on agarose gel),Taq,more specific as of having less side products; also recorded: results in specific PCR product
same,DNase activity,"[2]; 100 μM EGTA, 42° C.",largely restored DNase activity
same,DNA degradation by DNase,"[2]; 100 μM EGTA, on ice, 0.01, 0.1 and 1 U DNase, 5 and 15 min",almost complete inhibition of degradation
same,DNA degradation by DNase,"[2]; 100 μM EGTA, on ice, 1 U DNase for 15 min, compared to the sample without EGTA",degradation is significantly reduced
NC(CO)(CO)CO [Tris],pH of Tris buffer,[6]; 95° C.,6.6
same,pH of Tris based PCR buffer,[6],8.7
same,pH of Tris based PCR buffer,[6]; listed as Tris buffer,around 8.7
